Data on 1 molecule can be found in paper PMC4467398, “Preclinical antitumor activity of ST7612AA1: a new oral thiol-based histone deacetylase (HDAC) inhibitor” (Oncotarget, 2014).

Series [1] has as its system Breast cancer MDA-MB231. Description: In vitro proliferation assay (sulphorodamine B). It is filed as cell-based. The following applies: Homo sapiens, MDA-MB-231, 72 h, mean ± S.E.M.
Series [2] has as its system acetylation of alpha-tubulin in NCI-H460 NSCLC cells. In words: Western blot with densitometry, tubulin acetylation. It is filed as cell-based, human. The following applies: for Acetyl tub./tubulin: NCI-H460, vehicle 0,341. The procedure:
For assessing the in vitro effect of ST7612AA1 on acetylation of α-tubulin and histones, NSCLC cells were treated with the test compound at various concentrations (dose-response curve). SAHA 5 μM was used as reference inhibitor. Protein extraction, separation and immunoblotting were performed as previously described. Immunoreactive bands were finally subjected to densitometry analysis by a phosphoimaging system (STORM, Molecular Dynamics), and then the IC50 values were calculated by the “ALLFIT” computer program. The antibodies used are listed in Supplementary Table 2.

The subject of series [3] is Breast cancer MDA-MB436 xenograft. Description: In vivo xenograft model, oral ST7612AA1. The following applies: 60 mg/10 mL/kg oral, Qdx5/wx4w. Also noted: species or system nude mice. The procedure: (§1) Experiments on solid tumor and acute leukemia in vivo models were carried out at Sigma-Tau (Rome, Italy) using female athymic nude mice, 5-6 weeks-old (Harlan Laboratories, Udine, IT). Mice were maintained in laminar flow rooms with constant temperature and humidity in according to the NIH guidelines. The following human tumor xenograft models were used for antitumor activity studies: HCT116 derived from colon carcinoma), MV4;11 from acute myeloid leukaemia (AML), SKOV-3 from ovarian carcinoma, and NCI-H1975 from non-small cell lung cancer (NSCLC). Exponentially growing tumor cells were s.c. inoculated (5×10^6/mouse) in the right flank of nude mice. Groups of eight mice/group were employed to assess antitumor activity. MDA-MB436 breast carcinoma (3×10^6 cells/0.1 mL of M199/Matrigel GFR 50:50, vol/vol solution) was inoculated in mammary fat pad (mfp). Drug treatments were started from 3 to 11 days after tumor injection, depending on the tumor growth of the xenografted cancer model. ST7612AA1 was given daily for five days per week (qdx5/w). Tumor growth was followed by measurements of tumor diameters with a Vernier caliper. Tumor volume (TV) was calculated using the formula: TV (mm^3) = [d^2 x D]/2, where d and D are the shortest and the longest diameter, respectively. The efficacy of the drug treatment was assessed as: TV inhibition percentage (TVI%) in treated versus control mice, calculated as: TVI%=100-(mean TV treated/mean TV control x100). When tumors reached a volume of 500-1000 mm^3, mice were sacrificed by cervical dislocation. To examine the possible toxicity of treatment, body weight was recorded throughout the study. BWL% (body weight loss) was calculated as 100 – (mean BWdayx/mean BWday1x100), where day 1 is the first day of treatment and day x is any day after (maximum BWL%). DT as doubling time of control tumors was also evaluated.

Series [4] has as its system Colon cancer HCT-116 xenograft. Description: In vivo xenograft model, oral ST7612AA1. Also noted: species or system nude mice. The following applies: 60 mg/10 mL/kg oral, Qdx5/wx3w. The procedure: as §1
The subject of series [5] is NSCLC NCI-H1975 xenograft. In words: In vivo xenograft model, oral ST7612AA1. More on the design: species or system nude mice. The following applies: 60 mg/10 mL/kg oral, Qdx5/wx2w. The procedure:
as §1

Series [6] concerns Ovarian cancer SKOV-3 xenograft. Description: In vivo xenograft model, oral ST7612AA1. Also noted: species or system nude mice. The following applies: 60 mg/10 mL/kg oral, Qdx5/wx4w. The procedure: as §1
For series [7], the system named is Acute myeloid leukemia MV4;11 xenograft. Description: In vivo xenograft model, oral ST7612AA1. Also noted: species or system nude mice. The following applies: 60 mg/10 mL/kg oral, Qdx5/wx3w. The procedure: as §1
Series [8] deals with NSCLC NCI-H460. Description: In vitro proliferation assay (sulphorodamine B). It is filed as cell-based. The following applies: Homo sapiens, 72 h, mean ± S.E.M.
In series [9] the test system is HCT116 tumor xenografts. Description: Western blot of tumor xenografts after oral ST7612AA1. It is filed as in vivo, nude mice. The following applies: xenografts collected 24 h after the last oral administration; 80 mg/10 mL/kg qdx5/wx3w. The procedure: In order to assess the in vivo effect of ST7612AA1 on the acetylation degree of α-tubulin and histones, and on the expression of other key proteins, HCT116 tumor xenografts (3 samples/group) were excised at different times after the last treatment, and then total protein lysates were prepared through the homogenization of tumor samples in lysis buffer containing 0.5% NP-40, supplemented with 10 μg/mL of protease inhibitor cocktail (Sigma Chemical Co., St. Louis, MO, USA). Determination of the protein concentration and Western Blotting analysis were finally performed as above described for the in vitro experiments. The antibodies used are listed in Supplementary Table 2.

The subject of series [10] is Breast cancer MCF-7. Description: In vitro proliferation assay. It is filed as cell-based. The following applies: Homo sapiens, MCF7, 72 h, mean ± S.E.M. The procedure:
Anti-proliferative activity was first assessed on a panel of cell lines derived from solid tumors and hematological cancers and then on a large panel of cell lines derived from mature B-cell lymphomas. […] Lymphoma cells were seeded in 96-wells tissue culture plates in complete medium and were exposed to increasing concentrations of ST7612AA1 for 48 or 72 h; the anti-proliferative activity was assessed using 3-(4,5-dimethylthiazol-2-yl)-2,5-diphenyltetrazolium bromide (MTT). The drug potency was evaluated by means of the “ALLFIT” computer program and defined as IC50 (drug concentration required for 50% inhibition of cell survival).

Regarding `CC(=O)SCCCCC[C@H](NC(=O)[C@H]1CCC(=O)N1)C(=O)Nc1ccccc1` [ST7612AA1], the half-maximal inhibitory concentration (IC50) was 230 nM in [1]; 200 nM in series [2] (Homo sapiens, NCI-H460, 3 h exposure, Western blot densitometry, read-out: IC50 for increasing the acetylation of tubulin); 66 ± 10 nM in series [8]; 190 nM in series [10]. In addition, the Acetyl tub./tubulin in series [2] (0,2 µM) is 1,181; in series [2] (0,04 µM), 0,649; in series [2] (1 µM) it was 2,012; in [2] (0,008 µM) it was 0,588. Besides, the BWL% max in series [3] (maximum body weight loss) was found to be 4%; in series [4] (maximum body weight loss), 1%; in series [5] (maximum body weight loss) it was 4%; in [6] (maximum body weight loss) it was 1%; in series [7] (maximum body weight loss) it was 4%. Besides, the Lethal toxicity in series [3] (mice dead from toxicity/total), in series [4] (mice dead from toxicity/total), in series [5] (mice dead from toxicity/total), in [6] (mice dead from toxicity/total) and in [7] (mice dead from toxicity/total) was 0/8 each time. The HSP70 levels entry in series [9] is “significant increase”. Moreover, in series [9], the HSP90 protein levels result is listed as “dramatic decrease”. The “acetylated α-tubulin levels” value in series [9] is “increased levels”. The “pan H3 acetylation” value in series [9] is given as “strong induction”.
